# Assay results taken from patent US12419878B2, “Sustained release local anesthetic hydrogel composition” (THE GOVERNING COUNCIL OF THE UNIVERSITY OF TORONTO, priority 2019, dated 2025).
# Counter-ions that a name gives are not always drawn.
# Test: Plasma pharmacokinetics of ropivacaine in sciatic nerve blockade model
# Format: in vivo, Sprague-Dawley rats
# Text: Male Sprague-Dawley rats, approximately 400-500 g in weight, were anesthetized with 3-5% isoflurane and maintained as required. The left hind leg was shaved, cleaned twice with iodine and 70% ethanol, and a sterile drape placed over the animal to create a sterile field. An incision was made in the skin and the sciatic nerve exposed using a blunt dissection. The treatment was applied, the muscle and incision closed with sutures, and animals allowed to recover under a heat lamp. Controls were injected with vehicle only (i.e. HAMC) or ropivacaine in solution.
# Blood samples were taken from the tail veins and quantified using mass-spectrometry. All extractions and mass-spectrometry was carried out by the Analytical Facility for Bioactive Molecules (The Hospital for Sick Children, Toronto, Canada).
# To gain insight into the pharmacokinetics of ropivacaine released from HAMC, the sciatic nerve block procedure was performed as described. Animals were treated with ropivacaine-loaded 1.4:3 HAMC at doses of 30, 60, 90 or 120 mg/kg of particulate ropivacaine (<100 μm). Control animals received HAMC alone or ropivacaine in solution at 24 mg/kg. Each animal received approximately 400 μL of treatment. For the HAMC groups, blood was sampled by tail vein puncture at 2 h, 4 h, 6 h, 12 h, 20 h, 30 h, 48 h and 72 h. […]
# All statistical analyses were performed using GraphPad Prism (GraphPad Software 6, San Diego, CA, USA). Differences among 4 groups were assessed by one-way ANOVA followed by either Dunnett's or Tukey's multiple comparisons test to identify statistical significance. […] The area under the curve (AUC) was calculated for each HAMC-ropivacaine pharmacokinetic profile, and the subsequent AUC vs HAMC-ropivacaine relationship was fit to a linear regression.
# A pharmacokinetics study was performed to evaluate the systemic plasma distribution of ropivacaine when delivered either from HAMC or as bolus liquid solution. […] Blood was sampled by tail vein puncture over time, and the amount of ropivacaine was quantified by LC-MS/MS.
# [1] = Sprague-Dawley, rat, plasma, 24 mg/kg at left sciatic nerve, male rats
compound,measurement,setting,value
"CCCN1CCCC[C@H]1C(=O)Nc1c(C)cccc1C [ropivacaine solution, ropivacaine·HCl]",plasma levels,"24 mg/kg, by 24 h",negligible plasma levels
same,Cmax,[1],1000 ng/mL
same,Tmax,[1],1 h
